In the case of `Cc1cccc2c1c([N+](=O)[O-])cc[n+]2[O-]`, the logP (commonly the decadic logarithm of the partition coefficient of the neutral form, usually between octanol and water) turned out to be 1.36. `COc1cccc(/C=C/[N+](=O)[O-])c1` registered a logP of 2.37.

On to `CCCCCn1nnc2ccccc21`, for which the logP was found to be 3.22.

`CSc1ccccc1` gave a logP of 2.74. The value for `NS(=O)(=O)c1cccc2cccnc12` was 0.42. The value for `Oc1ccnc(S)n1` was -0.28; that for `CN(C)c1ccc(S(N)(=O)=O)cc1` was 0.76; that for `O=C1NC(=O)C(c2ccccc2)(c2ccccc2)N1` was 2.47.

`c1cnc2c(c1)ccc1ncccc12`: the logP was determined as 2.51. Compound `CCI` registered a logP of 2. Compound `O=c1[nH]c2nc(O)nc(O)c2[nH]1` showed a logP of -2.17. The value for `Cc1c(C)c(C)c(C)c(C)c1C` was 5.11. The value for `Cc1cccc(C)c1O` was 2.36; that for `OCc1ccc(Cl)cc1` was 1.96; that for `COc1ccccc1NC(C)=O` was 0.67. Turning to `NC(=O)c1cccnc1`, the logP is -0.37.

Consider `O=C(O)COC1Cc2ccccc2C1`, for which the logP was found to be 2.33. The figure for `Brc1ccc2ncccc2c1` is 2.83; for `Oc1c(Cl)cc(Cl)c(Cl)c1Cl` it is 4.45; for `NC(=O)CCCc1ccccn1` it is -0.09. Compound `Clc1ccccn1` had a logP of 1.22. The figure for `O=C(O)COc1ccccc1F` is 1.39.

In turn, `CNC(=O)Oc1cccc(I)c1` yielded a logP of 2.52. The value for `c1ccc2c(c1)Nc1ccccc1S2` was 4.15; that for `CC(=O)CC(C)=O` was 0.4.

On to `CN(C)C(=O)c1ccccc1`, for which the logP was 0.62. The value for `C=CCNCCC` was 1.33; that for `c1ccc2c(c1)Cc1ccccc1-2` was 4.18. Turning to `OCc1ccncc1`, the logP came to 0.06. On to `Nc1cc[nH]c(=O)n1`, for which the logP is -1.73. The compound `CNC(=O)Oc1ccc(C)c(C)c1` came in with a logP of 2.09. `CCCC(C)=O` showed a logP of 0.91.

As for `O=C(O)c1cccc(O)c1`, the logP was found to be 1.5. Compound `O=c1[nH]cc(F)c(=O)[nH]1` came in with a logP of -0.89. As for `O=C(Nc1ccccc1)c1ccccc1O`, the logP stood at 3.27.

The compound `Nc1ncnc2c1ncn2[C@H]1C[C@H](F)[C@@H](CO)O1` gave a logP of 0.08. The figure for `c1ccc(-c2ncc[nH]2)cc1` is 1.88; for `NCCc1c[nH]cn1` it is -0.7; for `OCC(F)(F)F` it is 0.41. The figure for `Clc1ccc(Cl)cc1` is 3.44; for `Nc1ncnc2c1ncn2[C@H]1C=C[C@@H](CO)O1` it is -0.5; for `CC[C@H](C)[C@H](N)C(=O)O` it is -1.7.

As to `CN(C)CC/C=C1\c2ccccc2Sc2ccc(Cl)cc21`, the logP amounted to 5.18. The value for `CCOC(C)=O` was 0.73; that for `NNC(=O)c1ccnc(Cl)c1` was 0.11. The figure for `Nc1ccc(S(=O)(=O)Nc2ccnn2-c2ccccc2)cc1` is 1.52; for `O=[N+]([O-])/C=C/c1cccc(O)c1` it is 2.07; for `COC(=O)C(C#N)=NNc1cc(Cl)cc(Cl)c1` it is 4.5. The figure for `Nc1cccc(Cl)c1` is 1.88. The compound `OCCN1CCN(CCCN2c3ccccc3Sc3ccc(C(F)(F)F)cc32)CC1` showed a logP of 4.36. The figure for `O=C(O)c1cc(I)cc(I)c1O` is 4.56; for `O=C1CN=C(c2ccccc2)c2cc([N+](=O)[O-])ccc2N1` it is 2.25. On to `OCC1OC(Oc2ccc(O)cc2)C(O)C(O)C1O` (configuration not stated), for which the logP is -1.35. The value for `CCN1CCCC1CNC(=O)c1cc(S(=O)(=O)CC)ccc1OC` (configuration not stated) was 1.06. The figure for `CCc1cccc2ccccc12` is 4.4; for `Oc1ccccc1I` it is 2.65; for `O=c1cn[nH]c(=O)[nH]1` it is -0.59.

The compound `CCN(CC)CCNC(=O)c1ccc(N)cc1` registered a log partition coefficient (logP) of 0.88. As to `O=C(O)CONC(=O)Nc1ccccc1`, the logP turned out to be 0.26. On to `Cc1cc(=O)oc2cc(O)ccc12`, for which the logP amounted to 1.9. The figure for `c1ccc2sccc2c1` is 3.12; for `CC(=O)C(C#N)=NNc1ccc([N+](=O)[O-])cc1[N+](=O)[O-]` it is 3.4; for `Cc1ccc(CO)cc1` it is 1.58. Regarding `N=c1[nH]c(=O)c2ncn([C@@H]3C=C[C@@H](CO)O3)c2[nH]1`, the logP is -1.21.

In turn, `Cc1ccnc(NS(=O)(=O)c2ccc(N)cc2)n1` gave a logP of 0.14. As for `N#Cc1cccs1`, the logP stood at 1.27. In the case of `CC(C)Sc1nnc(C(C)C)c(=O)n1N`, the logP was 2.06. The value for `NC(=O)Cc1ccncc1` was -0.65; that for `C[C@]12CCC(=O)C=C1CC[C@@H]1[C@@H]2[C@@H](O)C[C@]2(C=O)[C@@H](C(=O)CO)CC[C@@H]12` was 1.08; that for `O=C1CCCCCN1` was -0.19.

The compound `O=C(O)CCc1ccccc1` returned a logP of 1.84. `N#Cc1cccc([N+](=O)[O-])c1` showed a logP of 1.17. The value for `CNC(=O)c1ccccc1` was 0.86.

Regarding `CCCCCBr`, the logP was 3.37.

For `Oc1ccc(I)cc1`, the logP came out at 2.91. The compound `[N-]=[N+]=N[C@H]1C[C@H](n2ccc(=O)[nH]c2=O)O[C@@H]1CO` had a logP of -0.32. The value for `C1CCNC1` was 0.46; that for `Cc1c[nH]c(=O)[nH]c1=O` was -0.62; that for `CC(=O)c1ccc(O)cc1` was 1.35.

In turn, `Cc1cn([C@H]2C[C@H](O)[C@@H](CO)O2)c(=O)[nH]c1=S` had a logP of -0.07. Compound `CCS(=O)(=O)CCn1c([N+](=O)[O-])cnc1C` gave a lipophilicity (logP) of -0.35.

`OCC1OC(n2cnc3c(S)ncnc32)C(O)C1O` (configuration not stated): the logP is -0.6. The figure for `CNC(=O)Oc1cc(C)ccc1C(C)C` is 3.11; for `CI` it is 1.51. The value for `CC(C)(C)COC(N)=O` was 0.94; that for `CN(C)CCN1c2ccccc2Sc2ccccc21` was 4.2; that for `O=[N+]([O-])c1cc[n+]([O-])c2c(F)cccc12` was 1.

The values above are taken from the SangsterLogP compilation.
